Experimental data from ChEMBL document CHEMBL4825710, “Antibacterial activity of β-sitosterol isolated from the leaves of Odontonema strictum (Acanthaceae)” (2021).
Converted amounts (≈) assume the structure as drawn. The source made the active and inactive calls. No cut-off for these calls is given here.

Assays:
Staphylococcus aureus [1] = test: Antibacterial activity against Staphylococcus aureus assessed as bacterial growth inhibition; type: functional
Shigella dysenteriae [2] = test: Antibacterial activity against Shigella dysenteriae assessed as bacterial growth inhibition at 12.5 ug/ml; type: functional, organism-based; settings: dose 12.5 µg/ml
Candida albicans [3] = test: Antifungal activity against Candida albicans assessed as fungal growth inhibition at 12.5 ug/ml; type: functional, organism-based; settings: dose 12.5 µg/ml
Pseudomonas aeruginosa [4] = test: Antibacterial activity against Pseudomonas aeruginosa assessed as bacterial growth inhibition at 12.5 ug/ml; type: functional, organism-based; settings: dose 12.5 µg/ml
Salmonella typhi [5] = test: Antibacterial activity against Salmonella typhi assessed as bacterial growth inhibition at 12.5 ug/ml; type: functional, organism-based; settings: Salmonella enterica subsp. enterica serovar Typhi; dose 12.5 µg/ml
Proteus vulgaris [6] = test: Antibacterial activity against Proteus vulgaris assessed as bacterial growth inhibition at 12.5 ug/ml; type: functional, organism-based; settings: dose 12.5 µg/ml
Corynebacterium = test: Antibacterial activity against Corynebacterium assessed as bacterial growth inhibition at 12.5 ug/ml; type: functional, organism-based; settings: dose 12.5 µg/ml
Bacillus subtilis [7] = test: Antibacterial activity against Bacillus subtilis assessed as bacterial growth inhibition at 12.5 ug/ml; type: functional, organism-based; settings: dose 12.5 µg/ml
Streptococcus pyogenes [8] = test: Antibacterial activity against Streptococcus pyogenes assessed as bacterial growth inhibition at 12.5 ug/ml; type: functional, organism-based; settings: dose 12.5 µg/ml
Staphylococcus aureus [9] = test: Antibacterial activity against Staphylococcus aureus assessed as bacterial growth inhibition at 12.5 ug/ml; type: functional, organism-based; settings: dose 12.5 µg/ml
Staphylococcus aureus [10] = test: Antibacterial activity against Staphylococcus aureus assessed as inhibition of bacterial growth measured after 24 hrs by serial dilution method; type: functional
Staphylococcus aureus [11] = test: Bactericidal activity against Staphylococcus aureus; type: functional
Streptococcus pyogenes [12] = test: Antibacterial activity against Streptococcus pyogenes assessed as bacterial growth inhibition; type: functional
Bacillus subtilis [13] = test: Antibacterial activity against Bacillus subtilis assessed as bacterial growth inhibition; type: functional
Corynebacterium ulcerans = test: Antibacterial activity against Corynebacterium ulcerans assessed as bacterial growth inhibition; type: functional
Proteus vulgaris [14] = test: Antibacterial activity against Proteus vulgaris assessed as bacterial growth inhibition; type: functional
Pseudomonas aeruginosa [15] = test: Antibacterial activity against Pseudomonas aeruginosa assessed as bacterial growth inhibition; type: functional
Salmonella typhi [16] = test: Antibacterial activity against Salmonella typhi assessed as bacterial growth inhibition; type: functional, Salmonella enterica subsp. enterica serovar Typhi; settings: Salmonella enterica
Shigella dysenteriae [17] = test: Antibacterial activity against Shigella dysenteriae assessed as bacterial growth inhibition; type: functional
Candida albicans [18] = test: Antifungal activity against Candida albicans assessed as fungal growth inhibition; type: functional

Question: Which MBC (Staphylococcus aureus [1]) does the source give for `CC[C@H](CC[C@@H](C)[C@H]1CC[C@H]2[C@@H]3CC=C4C[C@@H](O)CC[C@]4(C)[C@H]3CC[C@]12C)C(C)C` [BETA-SITOSTEROL] here?
Answer: 50 µg/mL (≈ 121 µM)

Question: What about the “growth inhibition (GI)” value (Shigella dysenteriae [2]) of the same compound?
Answer: Active

Question: What about the “growth inhibition (GI)” value (Candida albicans [3]) of the same compound?
Answer: Active

Question: And the “growth inhibition (GI)” value (Pseudomonas aeruginosa [4])?
Answer: Active

Question: And the “growth inhibition (GI)” value (Salmonella typhi [5])?
Answer: Active

Question: And the “growth inhibition (GI)” value (Proteus vulgaris [6])?
Answer: Active

Question: And the “growth inhibition (GI)” value (Corynebacterium)?
Answer: Active

Question: And the “growth inhibition (GI)” value (Bacillus subtilis [7])?
Answer: Active

Question: And the “growth inhibition (GI)” value (Streptococcus pyogenes [8])?
Answer: Active

Question: What about the “growth inhibition (GI)” value (Staphylococcus aureus [9]) of the same compound?
Answer: Active

Question: And the MIC (Staphylococcus aureus [10])?
Answer: 1240 µg/mL (≈ 2990 µM)

Question: What about the MBC (Staphylococcus aureus [11]) of the same compound?
Answer: 2210 µg/mL (≈ 5320 µM)

Question: What about the MBC (Streptococcus pyogenes [12]) of the same compound?
Answer: 50 µg/mL (≈ 121 µM)

Question: And the MBC (Bacillus subtilis [13])?
Answer: 25 µg/mL (≈ 60.3 µM)

Question: And the MBC (Corynebacterium ulcerans)?
Answer: 25 µg/mL (≈ 60.3 µM)

Question: What about the MBC (Proteus vulgaris [14]) of the same compound?
Answer: 50 µg/mL (≈ 121 µM)

Question: What about the MBC (Pseudomonas aeruginosa [15]) of the same compound?
Answer: 50 µg/mL (≈ 121 µM)

Question: And the MBC (Salmonella typhi [16])?
Answer: 25 µg/mL (≈ 60.3 µM)

Question: And the MBC (Shigella dysenteriae [17])?
Answer: 50 µg/mL (≈ 121 µM)

Question: What about the MFC (Candida albicans [18]) of the same compound?
Answer: 50 µg/mL (≈ 121 µM)
